BigSolDB 2.1

COc1ccc(P(c2ccc(OC)cc2)c2ccc(OC)cc2)cc1
Details | solubility (mole fraction)
in 2-butanone, 293.16 K | 0.00621
in 2-butanone, 298.17 K | 0.00684
in 2-butanone, 303.18 K | 0.00749
in 2-butanone, 308.14 K | 0.00815
in 2-butanone, 313.16 K | 0.00884
in 2-butanone, 318.17 K | 0.00962
in 2-butanone, 323.16 K | 0.0103
in 2-butanone, 328.17 K | 0.0113
in 2-butanone, 333.16 K | 0.0121
in 2-ethoxyethanol, 293.16 K | 0.00522
in 2-ethoxyethanol, 298.17 K | 0.00693
in 2-ethoxyethanol, 303.18 K | 0.00862
in 2-ethoxyethanol, 308.14 K | 0.0108
in 2-ethoxyethanol, 313.16 K | 0.0136
in 2-ethoxyethanol, 318.17 K | 0.0168
in 2-ethoxyethanol, 323.16 K | 0.0209
in 2-ethoxyethanol, 328.17 K | 0.0255
in 2-ethoxyethanol, 333.16 K | 0.0311
in 2-ethoxyethanol, 338.17 K | 0.0377
in 2-ethoxyethanol, 343.15 K | 0.0454
in benzene, 293.16 K | 0.00029
in benzene, 298.17 K | 0.00037
in benzene, 303.18 K | 0.00045
in benzene, 308.14 K | 0.00054
in benzene, 313.16 K | 0.00068
in benzene, 318.17 K | 0.00082
in benzene, 323.16 K | 0.00099
in cyclohexane, 299.15 K | 0.00054
in cyclohexane, 304.05 K | 0.00082
in cyclohexane, 308.85 K | 0.00107
in cyclohexane, 313.95 K | 0.00151
in cyclohexane, 318.45 K | 0.00231
in cyclohexane, 323.65 K | 0.00326
in cyclohexane, 328.45 K | 0.00436
in cyclohexane, 332.85 K | 0.00596
in cyclohexane, 337.65 K | 0.00848
in diethyl ether, 293.16 K | 0.00587
in diethyl ether, 296.17 K | 0.00721
in diethyl ether, 299.18 K | 0.00889
in diethyl ether, 301.16 K | 0.0101
in diethyl ether, 303.15 K | 0.0114
in ethanol, 293.16 K | 0.00084
in ethanol, 298.17 K | 0.00102
in ethanol, 303.18 K | 0.00121
in ethanol, 308.14 K | 0.00142
in ethanol, 313.16 K | 0.00173
in ethanol, 318.17 K | 0.00202
in ethanol, 323.16 K | 0.00241
in methanol, 293.16 K | 0.00022
in methanol, 298.17 K | 0.00029
in methanol, 303.18 K | 0.0004
in methanol, 308.14 K | 0.00051
in methanol, 313.16 K | 0.00066
in methanol, 318.17 K | 0.00083
in methanol, 323.16 K | 0.00107
in toluene, 293.16 K | 0.00035
in toluene, 298.17 K | 0.00042
in toluene, 303.18 K | 0.00051
in toluene, 308.14 K | 0.00061
in toluene, 313.16 K | 0.00075
in toluene, 318.17 K | 0.00089
in toluene, 323.16 K | 0.00105
in toluene, 328.17 K | 0.00123
in toluene, 333.15 K | 0.00145

COc1ccc(P(=O)(c2ccc(OC)cc2)c2ccc(OC)cc2)cc1
Details | solubility (mole fraction)
in 2-butanone, 288.15 K | 0.00567
in 2-butanone, 293.16 K | 0.00642
in 2-butanone, 298.17 K | 0.00725
in 2-butanone, 303.18 K | 0.00814
in 2-butanone, 308.14 K | 0.00907
in 2-butanone, 313.16 K | 0.0102
in 2-butanone, 318.17 K | 0.0112
in 2-butanone, 323.16 K | 0.0125
in 2-butanone, 328.17 K | 0.0139
in 2-butanone, 333.16 K | 0.0153
in 2-ethoxyethanol, 293.16 K | 0.00573
in 2-ethoxyethanol, 298.17 K | 0.00716
in 2-ethoxyethanol, 303.18 K | 0.00919
in 2-ethoxyethanol, 308.14 K | 0.0114
in 2-ethoxyethanol, 313.16 K | 0.0143
in 2-ethoxyethanol, 318.17 K | 0.0175
in 2-ethoxyethanol, 323.16 K | 0.0223
in 2-ethoxyethanol, 328.17 K | 0.0276
in 2-ethoxyethanol, 333.17 K | 0.033
in 2-ethoxyethanol, 338.25 K | 0.0401
in 2-ethoxyethanol, 343.17 K | 0.0482
in benzene, 293.16 K | 0.00031
in benzene, 298.17 K | 0.00039
in benzene, 303.18 K | 0.00048
in benzene, 308.14 K | 0.00061
in benzene, 313.16 K | 0.00076
in benzene, 318.17 K | 0.00094
in benzene, 323.16 K | 0.00112
in cyclohexane, 298.15 K | 0.00053
in cyclohexane, 304.05 K | 0.00082
in cyclohexane, 308.32 K | 0.00113
in cyclohexane, 313.95 K | 0.00166
in cyclohexane, 318.45 K | 0.00229
in cyclohexane, 323.65 K | 0.00322
in cyclohexane, 328.45 K | 0.00455
in cyclohexane, 332.85 K | 0.00589
in cyclohexane, 337.65 K | 0.00806
in diethyl ether, 293.16 K | 0.00607
in diethyl ether, 296.17 K | 0.00739
in diethyl ether, 299.18 K | 0.00929
in diethyl ether, 301.16 K | 0.0106
in diethyl ether, 303.15 K | 0.0118
in ethanol, 298.25 K | 0.00037
in ethanol, 303.75 K | 0.00049
in ethanol, 308.05 K | 0.00067
in ethanol, 313.35 K | 0.00102
in ethanol, 317.75 K | 0.00128
in ethanol, 322.35 K | 0.00168
in ethanol, 328.15 K | 0.00236
in methanol, 293.35 K | 0.00019
in methanol, 298.25 K | 0.00024
in methanol, 303.15 K | 0.00031
in methanol, 308.05 K | 0.00042
in methanol, 313.15 K | 0.00056
in methanol, 318.15 K | 0.00071
in methanol, 322.65 K | 0.00098
in toluene, 293.16 K | 0.00036
in toluene, 298.17 K | 0.00045
in toluene, 303.18 K | 0.00055
in toluene, 308.14 K | 0.00066
in toluene, 313.16 K | 0.00083
in toluene, 318.17 K | 0.00099
in toluene, 323.16 K | 0.00121
in toluene, 328.17 K | 0.00143
in toluene, 333.15 K | 0.00169
